{
  "source": "patent US10072051B2",
  "about": "“Anti-inflammatory lipopeptide and preparing method and application thereof” (EAST CHINA NORMAL UNIVERSITY, priority 2012, dated 2018)",
  "assay_type_in_all_cases": "cell-based",
  "key": {"PPAR-γ and p65": {"test_system": "PPAR-γ and p65", "assay": "interaction between PPAR-γ and p65 in NHEKs, co-immunoprecipitation", "conditions": "poly(I:C) 4 hours or 12 hours, immunoprecipitation with p65 antibody", "description": "Example 4 illustrates that poly(I:C) can induce p65 phosphorylation and translocation, and poly(I:C) induces the inflammatory response through PPAR-γ. The aim of Example 5 is to illustrate the interaction between the translocated p65 and PPAR-γ in the nucleus. NHEKs were treated with poly(I:C) for 4 hours or 12 hours. Whole-cell extracts were prepared by using lysis buffer containing NP40 and incubated with the p65 antibody at 4° C. for overnight. Protein AG beads were added and incubated at 4° C. for 1-2 hours. Beads were then washed twice with washing buffer. The immunoprecipitates were eluted with 20 ul 2× sodium dodecyl sulfate (SDS) loading buffer and separated by PAGE. The proteins were transferred to nitrocellulose membrane and probed with PPAR-γ antibody."}, "p65 [1]": {"test_system": "p65", "assay": "p65 phosphorylation in NHEKs, Western blot", "conditions": "poly(I:C) alone, 4 hours and 12 hours", "description": "NHEKs were treated with PBS, poly(I:C), lipopeptide, poly(I:C) with lipopeptide for 4 hours or 12 hours. And then RIPA lysate was added to lyse the cell. The protein concentration was detected by using BCA protein assay kit, and 40 ug of proteins were separated by SDS-PAGE. The effects of the lipopeptide on p65 phosphorylation were detected by Western blot."}, "NHEKs": {"test_system": "NHEKs", "assay": "poly(I:C)-induced TNF-α and IL-6 expression in NHEKs, real-time RT-PCR", "description": "NHEKs were seeded in 24-well plates to grow to 70˜80% confluence, 2 ug/ml poly(I:C) were added. Different concentrations of the lipopeptide as Formula (1) in Example 1 were used to treat NHEKs. After 24 h, total RNA was extracted and cDNA was generated to detect the TNF-α and IL-6 expression by using real-time RT-PCR. […]"}, "p65 [2]": {"test_system": "p65", "assay": "p65 translocation into the nucleus in NHEKs (immunofluorescence, Western blot of nuclear proteins)", "conditions": "poly(I:C) alone; for p65 translocation into the nucleus: immunofluorescence", "description": "NHEKs were treated with PBS or poly(I:C) for 4 hours, and fixed with formaldehyde for 15 min followed by adding ice-cold 0.25% TritonX-100 and hydrogen peroxide. Cells were incubated with anti-p65 antibody at 4° C. for overnight after blocked with BSA for 0.5 hour. Next day, the cells were incubated with the second antibody (FITC-goat anti Rabbit IgG) and visualized under the microscope.\nNHEKs were treated with PBS, lipopeptide, poly(I:C) with or without lipopeptide for 12 hours, and fixed with formaldehyde for 15 min followed by adding ice-cold 0.25% TritonX-100 and hydrogen peroxide. Cells were stained with anti-p65 antibody for overnight after blocked with BSA for 0.5 h. Then the cells were incubated with the second antibody (FITC-goat anti Rabbit IgG) and visualized under the microscope.\nNHEKs were treated with PBS, poly(I:C), lipopeptide, poly(I:C) with lipopeptide for 12 hours. Proteins from nucleus were isolated and separated by PAGE. The p65 in the nucleus was detected by Western blot. […] Thus the lipopeptide has no effect on poly(I:C)-induced p65 translocation into the nucleus."}, "keratinocytes (NHEK)": {"test_system": "keratinocytes (NHEK)", "assay": "OVA-stimulated keratinocytes (NHEK), real-time RT-PCR", "conditions": "NHEKs treated with PPARγ inhibitor", "description": "To mimics the condition of atopic dermatitis keratinocytes was stimulated by ovalbumin (OVA). To test the inhibitory effect of the lipopeptide on inflammatory response in atopic dermatitis, PBS, OVA, lipopeptide, lipopeptide plus OVA were used to stimulate keratinocytes (NHEK) and RNA was extracted after 24-hour stimulation. The expression of TNF-α and IL-6 was analyzed by real-time RT-PCR."}, "β-catenin": {"test_system": "β-catenin", "assay": "β-catenin translocation into the nucleus in NHEKs", "conditions": "LiCl, nucleocytoplasmic separation"}, "[3]": {"conditions": "NHEKs treated with poly(I:C) alone, 24 h"}},
  "note": "“Also recorded” adds a separate entry of the source.",
  "data": [
    {"compound": "poly(I:C)", "values": [
      {"measurement": "interaction between PPAR-γ and P65", "setting": "PPAR-γ and p65", "value": "significantly induces"},
      {"measurement": "p65 phosphorylation", "setting": "p65 [1]", "value": "significantly induces"},
      {"measurement": "IL-6 expression", "setting": "NHEKs; [3]", "value": "dramatically induces; also recorded: dramatically increases"},
      {"measurement": "TNF-α expression", "setting": "NHEKs; [3]", "value": "dramatically induces; also recorded: dramatically increases"},
      {"measurement": "p65 translocation into the nucleus", "setting": "p65 [2]; 4 hours", "value": "obviously induces"},
      {"measurement": "level of p65 in the nucleus", "setting": "p65 [2]; 12 hours, Western blot", "value": "significantly increases"},
      {"measurement": "p65 translocation into the nucleus", "setting": "p65 [2]; 12 hours", "value": "obviously induces"}
    ]},
    {"compound": "O=C(Nc1ccccc1)c1cc([N+](=O)[O-])ccc1Cl", "note": "[GW9662]", "values": [
      {"measurement": "OVA-induced expression of inflammatory factor", "setting": "keratinocytes (NHEK)", "value": "significantly decreased"},
      {"measurement": "expression of IL-6 induced by poly(I:C)", "setting": "NHEKs; NHEKs, 24 h", "value": "significantly inhibited"},
      {"measurement": "expression of TNF-α induced by poly(I:C)", "setting": "NHEKs; NHEKs, 24 h", "value": "significantly inhibited"}
    ]},
    {"compound": "[Cl-].[Li+]", "note": "[LiCl]", "values": [
      {"measurement": "β-catenin translocation", "setting": "β-catenin", "value": "induces"},
      {"measurement": "poly(I:C)-induced inflammatory response", "setting": "NHEKs; NHEKs, 24 hours", "value": "inhibits"}
    ]},
    {"compound": "N.S=C(S)N1CCCC1", "note": "[PDTC]", "values": [
      {"measurement": "expression of IL-6 induced by poly(I:C)", "setting": "NHEKs; NHEKs, 24 h", "value": "inhibited"},
      {"measurement": "expression of TNF-α induced by poly(I:C)", "setting": "NHEKs; NHEKs, 24 h", "value": "inhibited"}
    ]}
  ]
}
